Test results reported in patent publication US7307062B2, “Method for treating a mental disorder” (priority 2003, dated 2007).
Entries after “also recorded” stand apart in the source; their conditions may differ.

Legend:
[1] = system: child with autistic disorder; assay: Case history five (autistic disorder); assay type: in vivo, human
[2] = system: child with autistic disorder; assay: Case history CM (autistic disorder); assay type: in vivo, human; settings: clarithromycin
Source text: […] They remained hospitalized for 80 days and suffered from significant medical complications due to their premature birth. […] They have severe delays in fine and gross motor skills. Also, severe delays in receptive and expressive language, consistent with their premature birth. […] […] […] Specific behaviors include irritability and temper tantrums, odd meaningless movements, and odd meaningless vocalizations. […] In spite of the placement of tympanostomy tubes […], […] continued to develop recurrent and persistent otis media untila second set of tubes were inserted approximately six months later. […] Head banging and tantrums stopped.

[3] = system: person with psychiatric symptoms; assay: Case study four (major depressive disorder, obsessive compulsive disorder, atypical psychosis, Crohn's disease); assay type: in vivo, human
Source text: patient four was a person whose symptoms were consistent with major depressive disorder, obsessive compulsive disorder, and atypical psychosis. Standard anti-psychotic medications were unsuccessful in treating the symptoms. The person also had severe gastrointestinal symptoms and was subsequently diagnosed with Crohn's disease. The person began treatment with prednisone and mesalamine, a standard therapy for Crohn's disease. […] Behavior problems were absent. […] A few months thereafter, the person experienced an acute psychiatric relapse and was admitted to the hospital. A colonoscopy confirmed active lesions in the right colon consistent with Crohn's disease. Treatment with prednisone and mesalamine was initiated for their Crohn's disease, with the prednisone later tapered to 20 mg/day after several months. […] the person was able to return to high school and completed their junior year with high honors.

[4] = system: child with autistic disorder; assay: Case study one (autistic disorder), successive antimicrobial and probiotic treatments
[5] = system: adolescent with ADHD, bipolar and conduct disorder; assay: Case study three (ADHD, major depressive disorder, bipolar)
[6] = system: child with Childhood Disintegrative Disorder; assay: Case history two (childhood disintegrative disorder), metronidazole therapy; assay type: in vivo, human
children with autism = assay: Vancomycin and retreatment followed by probiotic fecal enema in children with autism lacking peptostreptococcal species; settings: four children with autism
[7] = system: children with regressive onset autism; assay: Open-label trial of oral vancomycin in children with regressive-onset autism
[8] = metronidazole standard dosage for 17 days
[9] = Wilcoxon Signed Ranks Z=−2.9, p=0.003, baseline vs during therapy
[10] = vancomycin 500 mg/day orally, of ten children studied

## COCC1=C(C(=O)OC(C)OC(=O)OC(C)C)N2C(=O)[C@@H](NC(=O)/C(=N\OC)c3csc(N)n3)[C@H]2SC1 (stereo partly drawn) [cefpodoxime proxetil]
[1]; in vivo
  behavior as soon as antibiotics were finished: became more hyper, more easily aggitated, and more aggressive
[1]; prescribed for ear infection, calmness, improved sleep patterns, more signs for communication
  autistic symptoms while taking the antimicrobial: positive improvement in their autistic symptoms

## CC[C@H]1OC(=O)[C@H](C)[C@@H](O[C@H]2C[C@@](C)(OC)[C@@H](O)[C@H](C)O2)[C@H](C)[C@@H](O[C@@H]2O[C@H](C)C[C@H](N(C)C)[C@H]2O)[C@](C)(OC)C[C@@H](C)C(=O)[C@H](C)[C@@H](O)[C@]1(C)O [clarithromycin]
[2]
  behavior, parental report: became more cooperative and was much calmer
  head banging and tantrums, parental report: stopped

## Cc1ncc([N+](=O)[O-])n1CCO [metronidazole]
[3]; after first metronidazole course
  time of first deterioration in behavior: two months following the discontinuance
[3]; metronidazole 250 mg t.i.d. six weeks, with prednisone and mesalamine
  clinical response, first course: rapid improvement in attitude, mood and rebounded academically
[3]; metronidazole 500 mg t.i.d. for 30 days, within three weeks
  clinical response, second course: dramatic improvement in their psychiatric symptoms
[4]; metronidazole 250 mg t.i.d. for 21 days, end of treatment
  aggressive and hyperactive behaviors: substantially reduced
[5]; after two months of metronidazole treatment
  rating of behavior problems previously severe in degree: slight in degree or completely resolved
[5]; metronidazole 500 mg b.i.d.
  behavior during first week of treatment: highly agitated
[5]; two weeks after metronidazole therapy was discontinued
  behavior after discontinuation: behavior deteriorated
[6]; after discontinuation, on Lactobacillus Acidophilus GG
  Social behavior, After Metronidazole: Reverted to baseline
[6]; after discontinuation, on Lactobacillus Acidophilus GG 20 billion cells per day
  Attitude/State of Mind, After Metronidazole: Reverted to baseline
[6]; after discontinuation, on Lactobacillus Acidophilus GG, logic and coherence of speech
  Speech, After Metronidazole: Initially regressed,
[6]; after discontinuation, on Lactobacillus Acidophilus GG, sleep
  Ability: Physical or Mental, After Metronidazole: Remained somewhat
[6]; after discontinuation, on Lactobacillus Acidophilus GG, voice quality
  Speech, After Metronidazole: Reverted to baseline
[6]; [8]
  Ability: Physical or Mental, During Metronidazole: Fell asleep quickly
  Attitude/State of Mind, During Metronidazole: Aware of surroundings; also recorded: Relaxed and calm; also recorded: Happy, pleasant
[6]; metronidazole standard dosage for 17 days, aggression towards little brother
  Social behavior, During Metronidazole: No aggression towards
[6]; metronidazole standard dosage for 17 days, logic and coherence of speech
  Speech, During Metronidazole: Speech on topic, more
[6]; metronidazole standard dosage for 17 days, peer interaction and play skills
  Social behavior, During Metronidazole: Marked improvement in
[6]; metronidazole standard dosage for 17 days, social communication
  Speech, During Metronidazole: Initiated and
[6]; metronidazole standard dosage for 17 days, voice quality
  Speech, During Metronidazole: Voice normal, natural,
[6]; within a week after the discontinuation of metronidazole
  positive gains after discontinuation: began to deteriorate

## CN[C@H](CC(C)C)C(=O)N[C@H]1C(=O)N[C@@H](CC(N)=O)C(=O)N[C@H]2C(=O)N[C@H]3C(=O)N[C@H](C(=O)N[C@H](C(=O)O)c4cc(O)cc(O)c4-c4cc3ccc4O)[C@H](O)c3ccc(c(Cl)c3)Oc3cc2cc(c3O[C@@H]2O[C@H](CO)[C@@H](O)[C@H](O)[C@H]2O[C@H]2C[C@](C)(N)[C@H](O)[C@H](C)O2)Oc2ccc(cc2Cl)[C@H]1O [vancomycin]
Children with autism
  relapse after discontinuance of antimicrobial therapy: relapsed within two weeks
Children with autism; complete absence of peptostreptococcal species in stool
  response to treatment: responded favorably
[4]; emerged three days after initiation of vancomycin
  duration of hyperactivity pattern: four
[4]; following hyperactivity pattern on vancomycin
  duration of lethargy: two
[4]; shortly after discontinuation, while taking probiotic agents
  behavior after vancomycin discontinuation: behavioral deterioration was observed
[4]; vancomycin 125 mg q.i.d., 12-week trial
  clinical response: rapid and dramatic clinical improvement
[4]; vancomycin 125 mg q.i.d., after 8 weeks
  composite score, Vineland Adaptive Behavior Scales: 19 months
[4]; vancomycin 125 mg q.i.d., first 8 weeks of treatment, baseline 11 months
  increase of composite score, Vineland Adaptive Behavior Scales: 8 months
[7]; [9]
  behavior, unblinded analog rating scale, group as a whole: improvement
  communication, unblinded analog rating scale, group as a whole: improvement
[7]; after the hyperactivity period
  subjects with a day of marked lethargy: One
[7]; baseline and throughout the study, all children
  basic blood, stool, and urine tests; physical examinations: unremarkable
[7]; two to eight months after discontinuance, in all but one child
  analog ratings at long-term follow-up: returned towards baseline
[7]; vancomycin 500 mg/day orally for eight weeks, ten of eleven children scored by blinded psychologist
  children with improvement during therapy, blinded assessment of coded, paired videotapes: 8 of 10 and eight of ten
[7]; [10]
  children with no change, blinded assessment of coded, paired videotapes: one
  children with possible deterioration, blinded assessment of coded, paired videotapes: one
[7]; within three days of initiating antibiotic treatment
  duration of period of hyperactivity: 1 to 4 days
[7]; within three days of initiating antibiotic treatment, eleven children
  children with a brief period of hyperactivity: six
